Source: ChEMBL document CHEMBL3885861, “Open TG-GATES”

Organism: Rattus norvegicus
Experiment: Open TG-GATES - Regimen: Single
Assay type: toxicity, organism-based, Sprague-Dawley
Set-up: regimen Single, gender Male, age 6 weeks
Settings: in vivo, po, 45 mg/kg, route gavage, dose level Low; for APTT / Bas / Eos / Fbg / Hb / Ht / Lym / MCH / MCHC / MCV / Mono / Neu / PT / Plat / RBC / Ret / WBC: tissue Blood; for KIDNEY_L / KIDNEY_R / KIDNEY_TOTAL: tissue Kidney; for LIVER: tissue Liver; for ALP / ALT / AST / BUN / CRE / DBIL / GLC / K / LDH / Na / PL / RALB / TBIL / TC / TG / TP / gamma-GTP: tissue Plasma

CC(CCc1ccccc1)NCC(O)c1ccc(O)c(C(N)=O)c1 (stereo unspecified) [LABETALOL]
TERMINAL_BW (3 h): 214.4 g
APTT (3 h): 16 s
Bas (3 h): 0%
Eos (3 h): 1%
Fbg (3 h): 265.8 mg/dL
Hb (3 h): 13 g/dL
Ht (3 h): 38.2%
Lym (3 h): 78.2%
MCH (3 h): 22.2 pg
MCHC (3 h): 33.9%
MCV (3 h): 65.5 fL
Mono (3 h): 3.2%
Neu (3 h): 16.6%
PT (3 h): 13.1 s
Plat (3 h): 103.6 x10_4/uL
RBC (3 h): 584 x10_4/ul
Ret (3 h): 8.6%
WBC (3 h): 63.4 x10_2/uL
KIDNEY_L (3 h): 0.9 g
KIDNEY_R (3 h): 0.9 g
KIDNEY_TOTAL (3 h): 1.8 g
LIVER (3 h): 9.7 g
ALP (3 h): 1420.4 IU/L
ALT (3 h): 42.2 IU/L
AST (3 h): 70.8 IU/L
BUN (3 h): 11.6 mg/dL
CRE (3 h): 0.2 mg/dL
DBIL (3 h): 0.014 mg/dL
GLC (3 h): 190.2 mg/dL
K (3 h): 3.8 meq/L
LDH (3 h): 56.2 IU/L
Na (3 h): 143 meq/L
PL (3 h): 147.4 mg/dL
RALB (3 h): 2.6 g/dL
TBIL (3 h): 0.044 mg/dL
TC (3 h): 83.6 mg/dL
TG (3 h): 60.4 mg/dL
TP (3 h): 5.4 g/dL
gamma-GTP (3 h): 1 IU/L
TERMINAL_BW (6 h): 214.9 g
APTT (6 h): 16.1 s
Bas (6 h): 0%
Eos (6 h): 1%
Fbg (6 h): 287.6 mg/dL
Hb (6 h): 12.8 g/dL
Ht (6 h): 37.8%
Lym (6 h): 75.6%
MCH (6 h): 21.4 pg
MCHC (6 h): 33.8%
MCV (6 h): 63.3 fL
Mono (6 h): 2.4%
Neu (6 h): 20.6%
PT (6 h): 13.1 s
Plat (6 h): 116.3 x10_4/uL
RBC (6 h): 596.4 x10_4/ul
Ret (6 h): 8.2%
WBC (6 h): 76.9 x10_2/uL
KIDNEY_L (6 h): 0.9 g
KIDNEY_R (6 h): 0.9 g
KIDNEY_TOTAL (6 h): 1.9 g
LIVER (6 h): 8.9 g
ALP (6 h): 1402 IU/L
ALT (6 h): 40.2 IU/L
AST (6 h): 73 IU/L
BUN (6 h): 9.6 mg/dL
CRE (6 h): 0.2 mg/dL
DBIL (6 h): 0.01 mg/dL
GLC (6 h): 180.4 mg/dL
K (6 h): 3.9 meq/L
LDH (6 h): 46 IU/L
Na (6 h): 142.8 meq/L
PL (6 h): 135.8 mg/dL
RALB (6 h): 2.5 g/dL
TBIL (6 h): 0.038 mg/dL
TC (6 h): 82.4 mg/dL
TG (6 h): 50.6 mg/dL
TP (6 h): 5.4 g/dL
gamma-GTP (6 h): 1.2 IU/L
TERMINAL_BW (9 h): 212.6 g
APTT (9 h): 16.8 s
Bas (9 h): 0%
Eos (9 h): 1%
Fbg (9 h): 293.4 mg/dL
Hb (9 h): 12.9 g/dL
Ht (9 h): 38.5%
Lym (9 h): 79.4%
MCH (9 h): 21.3 pg
MCHC (9 h): 33.7%
MCV (9 h): 63.3 fL
Mono (9 h): 1.8%
Neu (9 h): 17.2%
PT (9 h): 13.3 s
Plat (9 h): 106.4 x10_4/uL
RBC (9 h): 608.2 x10_4/ul
Ret (9 h): 8.2%
WBC (9 h): 70.4 x10_2/uL
KIDNEY_L (9 h): 0.9 g
KIDNEY_R (9 h): 0.9 g
KIDNEY_TOTAL (9 h): 1.9 g
LIVER (9 h): 8.1 g
ALP (9 h): 1452.8 IU/L
ALT (9 h): 43.6 IU/L
AST (9 h): 69 IU/L
BUN (9 h): 9.6 mg/dL
CRE (9 h): 0.2 mg/dL
DBIL (9 h): 0.008 mg/dL
GLC (9 h): 184.2 mg/dL
K (9 h): 3.9 meq/L
LDH (9 h): 46.2 IU/L
Na (9 h): 143.6 meq/L
PL (9 h): 136 mg/dL
RALB (9 h): 2.5 g/dL
TBIL (9 h): 0.038 mg/dL
TC (9 h): 81.8 mg/dL
TG (9 h): 39.6 mg/dL
TP (9 h): 5.3 g/dL
gamma-GTP (9 h): 1 IU/L
TERMINAL_BW (24 h): 226.1 g
APTT (24 h): 16.2 s
Bas (24 h): 0%
Eos (24 h): 1.2%
Fbg (24 h): 284.4 mg/dL
Hb (24 h): 13.5 g/dL
Ht (24 h): 39.1%
Lym (24 h): 78%
MCH (24 h): 21.9 pg
MCHC (24 h): 34.6%
MCV (24 h): 63.3 fL
Mono (24 h): 2.8%
Neu (24 h): 17.6%
PT (24 h): 12.8 s
Plat (24 h): 112.9 x10_4/uL
RBC (24 h): 618.6 x10_4/ul
Ret (24 h): 8.2%
WBC (24 h): 80.8 x10_2/uL
KIDNEY_L (24 h): 1 g
KIDNEY_R (24 h): 1 g
KIDNEY_TOTAL (24 h): 1.9 g
LIVER (24 h): 10.4 g
ALP (24 h): 1933.8 IU/L
ALT (24 h): 53.2 IU/L
AST (24 h): 82.2 IU/L
BUN (24 h): 14.8 mg/dL
CRE (24 h): 0.2 mg/dL
DBIL (24 h): 0.018 mg/dL
GLC (24 h): 181.8 mg/dL
K (24 h): 4.1 meq/L
LDH (24 h): 87.4 IU/L
Na (24 h): 142 meq/L
PL (24 h): 150.8 mg/dL
RALB (24 h): 2.7 g/dL
TBIL (24 h): 0.032 mg/dL
TC (24 h): 81.8 mg/dL
TG (24 h): 119 mg/dL
TP (24 h): 5.7 g/dL
gamma-GTP (24 h): 1.2 IU/L
